The results in this text go back to ChEMBL document CHEMBL1142766, “4-Fluorosulfonylpiperidines: selective 5-HT2A ligands for the treatment of insomnia” (Bioorg Med Chem Lett, 2005).

As usually defined, the pKa is the negative logarithm of the acid dissociation constant. Higher therefore signals a group that holds its proton tightly. As usually defined, the Ki is the dissociation constant of the complex between target and ligand, obtained from inhibition or displacement. Read a high Ki as a looser hold on the target. One may read the bioavailability as dose-corrected exposure relative to a reference, in per cent. High values mean much systemic uptake, low ones little systemic uptake. Broadly, the half-life is the time needed for the level to fall by half in the phase considered. Low values mean rapid decline, high ones slow decline.

Data set [1] can be described thus: pKa value of the compound. The format is physicochemical.
Data set [2] deals with 5-hydroxytryptamine receptor 2A (Homo sapiens, UniProt P28223). The data set is described as follows: Binding affinity against human 5-hydroxytryptamine 2A receptor.
Sequence of 5-hydroxytryptamine receptor 2A (Homo sapiens, UniProt P28223) (P28223 whole entry): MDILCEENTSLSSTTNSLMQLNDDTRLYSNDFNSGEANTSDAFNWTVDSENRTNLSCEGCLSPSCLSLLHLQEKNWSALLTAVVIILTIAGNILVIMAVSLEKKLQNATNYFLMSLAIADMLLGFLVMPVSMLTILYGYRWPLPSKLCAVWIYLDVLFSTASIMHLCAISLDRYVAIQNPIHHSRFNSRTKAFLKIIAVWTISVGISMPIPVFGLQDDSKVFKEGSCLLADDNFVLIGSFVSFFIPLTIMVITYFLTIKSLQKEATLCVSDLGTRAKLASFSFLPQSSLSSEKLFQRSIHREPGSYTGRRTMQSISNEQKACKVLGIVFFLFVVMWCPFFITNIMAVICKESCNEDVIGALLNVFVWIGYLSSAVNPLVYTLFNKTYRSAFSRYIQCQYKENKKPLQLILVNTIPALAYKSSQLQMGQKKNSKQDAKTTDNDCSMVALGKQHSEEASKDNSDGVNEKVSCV
The next data set addresses D(2) dopamine receptor (Homo sapiens, UniProt P14416). The data set can be described thus: Binding affinity against human Dopamine receptor D2.
The target of data set [3] is Voltage-gated inwardly rectifying potassium channel KCNH2 (Homo sapiens, UniProt Q12809). The data set is described as follows: Binding affinity against human IKr channel.
Sequence of Voltage-gated inwardly rectifying potassium channel KCNH2 (Q12809 whole entry): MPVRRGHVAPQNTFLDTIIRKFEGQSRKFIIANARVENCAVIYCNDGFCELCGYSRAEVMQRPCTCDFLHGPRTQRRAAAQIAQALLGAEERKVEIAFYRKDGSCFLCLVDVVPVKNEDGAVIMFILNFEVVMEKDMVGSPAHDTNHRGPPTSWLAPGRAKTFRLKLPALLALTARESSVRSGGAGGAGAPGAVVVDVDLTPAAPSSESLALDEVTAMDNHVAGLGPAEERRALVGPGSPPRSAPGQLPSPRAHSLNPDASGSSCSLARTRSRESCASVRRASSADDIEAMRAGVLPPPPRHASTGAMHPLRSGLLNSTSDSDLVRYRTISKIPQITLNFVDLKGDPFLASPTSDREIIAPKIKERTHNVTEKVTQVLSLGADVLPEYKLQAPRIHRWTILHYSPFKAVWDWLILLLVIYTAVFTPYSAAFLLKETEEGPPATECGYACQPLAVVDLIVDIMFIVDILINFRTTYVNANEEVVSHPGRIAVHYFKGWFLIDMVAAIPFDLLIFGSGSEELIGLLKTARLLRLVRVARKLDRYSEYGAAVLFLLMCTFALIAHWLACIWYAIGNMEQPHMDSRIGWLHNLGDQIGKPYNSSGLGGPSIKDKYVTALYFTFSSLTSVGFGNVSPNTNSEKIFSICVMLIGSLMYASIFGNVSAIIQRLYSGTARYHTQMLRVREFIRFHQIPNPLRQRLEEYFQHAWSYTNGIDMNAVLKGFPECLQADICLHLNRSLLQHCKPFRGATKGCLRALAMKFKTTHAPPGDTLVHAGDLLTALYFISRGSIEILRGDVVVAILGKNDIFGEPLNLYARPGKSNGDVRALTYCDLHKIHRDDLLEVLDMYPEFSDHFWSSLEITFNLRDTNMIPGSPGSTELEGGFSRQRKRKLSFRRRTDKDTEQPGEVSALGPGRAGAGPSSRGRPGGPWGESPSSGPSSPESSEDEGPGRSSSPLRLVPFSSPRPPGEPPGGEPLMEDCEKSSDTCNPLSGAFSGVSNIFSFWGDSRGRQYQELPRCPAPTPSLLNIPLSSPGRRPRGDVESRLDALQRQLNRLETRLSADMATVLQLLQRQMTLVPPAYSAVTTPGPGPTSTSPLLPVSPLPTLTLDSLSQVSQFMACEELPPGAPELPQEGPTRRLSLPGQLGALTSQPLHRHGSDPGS
The target in data set [4] is 5-hydroxytryptamine receptor 2A (Rattus norvegicus) (UniProt P14842). The data set is described as follows: In vivo occupancy at rat 5-HT2A receptor at 30 min after dosing at 10 mg/kg per orally. The format is functional, organism-based.
Sequence of 5-hydroxytryptamine receptor 2A (Rattus norvegicus) (P14842 whole entry): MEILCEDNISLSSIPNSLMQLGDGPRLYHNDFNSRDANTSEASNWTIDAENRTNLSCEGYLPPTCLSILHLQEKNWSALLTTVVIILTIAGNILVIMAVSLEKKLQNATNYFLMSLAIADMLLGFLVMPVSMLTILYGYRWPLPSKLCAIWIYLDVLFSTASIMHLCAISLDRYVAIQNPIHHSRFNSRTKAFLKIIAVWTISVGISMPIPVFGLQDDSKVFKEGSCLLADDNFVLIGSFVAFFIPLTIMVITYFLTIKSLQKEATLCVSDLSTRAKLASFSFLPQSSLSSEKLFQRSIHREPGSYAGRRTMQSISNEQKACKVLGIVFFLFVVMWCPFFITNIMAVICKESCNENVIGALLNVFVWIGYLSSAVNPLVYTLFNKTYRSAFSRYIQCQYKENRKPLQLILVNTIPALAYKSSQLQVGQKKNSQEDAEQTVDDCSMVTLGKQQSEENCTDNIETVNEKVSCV
The target of data set [5] is T1, 5-hydroxytryptamine receptor 2C (Homo sapiens, UniProt P28335).
T1 sequence (P28335 whole entry): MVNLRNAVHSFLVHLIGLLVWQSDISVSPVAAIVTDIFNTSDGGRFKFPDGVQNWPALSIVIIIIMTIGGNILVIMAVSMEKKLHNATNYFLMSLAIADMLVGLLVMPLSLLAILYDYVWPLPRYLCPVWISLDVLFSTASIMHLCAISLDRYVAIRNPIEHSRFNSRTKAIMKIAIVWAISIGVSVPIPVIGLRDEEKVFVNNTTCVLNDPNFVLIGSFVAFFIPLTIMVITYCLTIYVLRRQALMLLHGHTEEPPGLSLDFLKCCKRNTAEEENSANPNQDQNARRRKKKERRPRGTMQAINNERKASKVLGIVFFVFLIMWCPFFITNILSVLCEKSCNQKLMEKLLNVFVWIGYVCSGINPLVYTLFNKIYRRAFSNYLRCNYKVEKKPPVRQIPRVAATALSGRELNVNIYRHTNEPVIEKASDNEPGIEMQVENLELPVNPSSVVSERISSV
Description: Binding affinity against human 5-hydroxytryptamine 2c receptor

In data set [6] the target is 5-hydroxytryptamine receptor 2A (Rattus norvegicus, UniProt P14842). The data set is described as follows: Binding affinity against rat 5-hydroxytryptamine 2A receptor.
Sequence of 5-hydroxytryptamine receptor 2A (Rattus norvegicus, UniProt P14842) (P14842 whole entry): as the sequence (P14842 whole entry) above
Data set [7] in a line: Bioavailability in rat. The format is ADME, organism-based. As to conditions: in vivo.
Data set [8] is described as follows: Half life period was determined. The format is ADME. Particulars: rat.
A short description of data set [9]: Plasma clearance after i.v. administration in rat. The data set is classed as ADME, organism-based. Particulars: iv, read-out: Clp.

Sequence of D(2) dopamine receptor (P14416 whole entry): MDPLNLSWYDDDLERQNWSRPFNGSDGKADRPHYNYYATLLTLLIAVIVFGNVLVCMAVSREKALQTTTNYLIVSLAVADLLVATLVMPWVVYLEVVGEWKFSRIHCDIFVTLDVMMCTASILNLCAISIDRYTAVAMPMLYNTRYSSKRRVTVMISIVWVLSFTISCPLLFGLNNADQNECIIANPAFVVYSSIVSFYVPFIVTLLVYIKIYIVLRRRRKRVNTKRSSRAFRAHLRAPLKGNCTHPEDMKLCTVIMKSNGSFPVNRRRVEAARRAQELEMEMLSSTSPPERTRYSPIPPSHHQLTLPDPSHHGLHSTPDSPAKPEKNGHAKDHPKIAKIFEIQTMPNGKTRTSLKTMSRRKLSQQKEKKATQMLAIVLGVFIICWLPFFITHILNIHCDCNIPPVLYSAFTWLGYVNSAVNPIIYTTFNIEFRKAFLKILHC

In the case of `O=S(=O)(c1ccc(F)cc1)C1CCN(CCc2ccc(F)cc2F)CC1`, in data set [1], the pKa worked out at 7.2.

As to `O=S(=O)(c1ccc(-n2ccnn2)cc1)C1(F)CCN(CCc2ccc(F)cc2F)CC1`, the Ki in data set [2] was 0.66 nM; at D(2) dopamine receptor it was over 2000 nM; in data set [3], over 9000 nM; in data set [5], over 4000 nM. The compound further came in with an Activity in data set [4] of 62.

On to `N#Cc1ccc(S(=O)(=O)C2(F)CCN(CCc3ccc(F)cc3F)CC2)cc1`, for which the Ki in data set [2] was 2.7 nM; in data set [6] it was 1.33 nM; at D(2) dopamine receptor, 863 nM; in [3], 2700 nM; in data set [5], 1490 nM. In addition, in data set [1], the pKa worked out at 6.4. Moreover, in data set [4], the Activity came to 80.

For the compound `O=S(=O)(c1cccc(F)c1)C1(F)CCN(CCc2ccc(F)cc2F)CC1`, the Ki in [2] was determined as 0.3 nM; on D(2) dopamine receptor, 791 nM; in data set [5], 49 nM.

As to `O=S(=O)(c1ccc(F)cc1)C1(F)CCN(CCc2ccc(F)cc2F)CC1`, the Ki in data set [2] worked out at 0.39 nM; in [6], 0.63 nM; on D(2) dopamine receptor, 313 nM; in data set [3], 5560 nM; in [5] it was 176 nM. The bioavailability in [7] turned out to be 51%. The same compound had a half-life in [8] of 3.8 h. Further, in data set [9], the clearance came out at 69 mL/min. For the same compound, the pKa in data set [1] was 6.3. The Activity in [4] stood at 98%.

As for `O=S(=O)(c1ccccc1F)C1(F)CCN(CCc2ccc(F)cc2F)CC1`, the inhibition constant Ki in data set [2] was 0.32 nM; on D(2) dopamine receptor, 266 nM; in data set [3], 398 nM; in data set [5], 14 nM.

As for `O=S(=O)(c1ccc(Cl)cc1)C1(F)CCN(CCc2ccc(F)cc2F)CC1`, the inhibitory constant (Ki) in [2] was 0.64 nM; on D(2) dopamine receptor, over 1000 nM.

Consider `O=C(CN1CCC(S(=O)(=O)c2ccccc2)CC1)c1ccc(F)cc1F`, for which the Ki in data set [2] was 2.4 nM; in data set [6], 0.51 nM; at D(2) dopamine receptor it was over 1500 nM; in data set [3] it was 6800 nM; in data set [5], 130 nM. The compound further came in with a pKa in [1] of 6.3.

`O=S(=O)(c1ccc(N2CCC2)cc1)C1(F)CCN(CCc2ccc(F)cc2F)CC1`: the Ki in [2] is 1 nM; in [6] it was 0.3 nM; on D(2) dopamine receptor, over 2000 nM; in data set [5], 844 nM. The Activity in [4] worked out at 49.

On to `O=S(=O)(c1ccccc1)C1(F)CCN(CCc2ccc(F)cc2F)CC1`, for which the Ki is 0.68 nM in data set [2], over 1000 nM at D(2) dopamine receptor, 2450 nM in data set [3] and 49 nM in data set [5].

For the compound `O=S(=O)(c1ccccc1)C1CCN(CCc2ccc(F)cc2F)CC1`, the pKa in data set [1] was found to be 7.3.

Turning to `O=S(=O)(c1ccc(-n2cccn2)cc1)C1(F)CCN(CCc2ccc(F)cc2F)CC1`, the inhibition constant (Ki) in [2] is 2 nM; in data set [6], 1.6 nM; on D(2) dopamine receptor, over 2000 nM; in [3], over 9000 nM; in data set [5] it was over 4000 nM. This compound also registered an Activity in data set [4] of 37.
